From patent US20230017045A1, “PYRIDINE AND PYRIMIDINE CARBOXYLATE HERBICIDES AND METHODS OF USE THEREOF” (Dow AgroSciences LLC, priority 2017, published 2023) come the findings set out here.

Each structure is given as a SMILES string. Like-named read-outs stand apart in the source and are kept apart here.

For this assay, the system named is test plant species. Description: Post-emergent herbicidal activity test (greenhouse, foliar spray, visual growth reduction). In kind it is in vivo. The settings on record: post-emergence, 336 h, 140 g ai/ha, 14 days after application. On the procedure: Post-emergent Test: Seeds or nutlets of the desired test plant species were planted in Sun Gro Metro-Mix® 360 planting mixture, which typically has a pH of 6.0 to 6.8 and an organic matter content of about 30 percent, in plastic pots with a surface area of 64 square centimeters. In some aspects, to ensure good germination and healthy plants, a fungicide treatment and/or other chemical or physical treatment was applied. The plants were grown for 7-21 d in a greenhouse with an approximate 15 h photoperiod which was maintained at 23-29° C. during the day and 22-28° C. during the night. Nutrients and water were added on a regular basis and supplemental lighting was provided with overhead metal halide 1000-Watt lamps as necessary. Plants were used for testing when they reached the first or second true leaf stage. A weighed amount, determined by the highest rate to be tested, of each test compound was placed in a 25 mL glass vial and was dissolved in 4 mL of a 97:3 v/v mixture of acetone and DMSO to obtain concentrated stock solutions. […] The concentrated stock solutions obtained were diluted with 20 mL of an aqueous mixture containing acetone, water, isopropyl alcohol, DMSO, […] crop oil concentrate, and X-77 surfactant in a 48.5:39:10:1.5:1.0:0.02 v/v ratio to obtain spray solutions containing the application rate. Compound requirements are based upon a 12 mL application volume at a rate of 187 liters per hectare (L/ha). Formulated compounds were applied to the plant material with an overhead Mandel track sprayer equipped with […] nozzles calibrated to deliver 187 L/ha over an application area of 0.64 square meters at a spray height of 18 inches (43 cm) above the average plant canopy height. Control plants were sprayed in the same manner with the solvent blank. The treated plants and control plants were placed in a greenhouse as described above and watered by subirrigation to prevent wash-off of the test compounds. After 14 d, the condition of the test plants as compared with that of the nontreated and control plants was determined visually and scored on a scale of 0 to 100 percent where 0 corresponds to no injury and 100 corresponds to complete control. In the reporting of the results, Table A: Percent Growth Reduction Conversion Table was used.

Where [1] appears, read: ALOMY: blackgrass (Alopecurus myosuroides), read-out: Visual Growth Reduction (%) 14 Days After Application, ALOMY.
Setting [2] is: AMARE: redroot pigweed (Amaranthus retroflexus), read-out: Visual Growth Reduction (%) 14 Days After Application, AMARE.
Setting [3] is: AVEFA: wild oat (Avena fatua), read-out: Visual Growth Reduction (%) 14 Days After Application, AVEFA.
[4] abbreviates: CHEAL: lambsquarters (Chenopodium album), read-out: Visual Growth Reduction (%) 14 Days After Application, CHEAL.
Where [5] appears, read: CIRAR: canada thistle (Cirsium arvense), read-out: Visual Growth Reduction (%) 14 Days After Application, CIRAR.
Setting [6] is: CYPES: yellow nutsedge (Cyperus esculentus), read-out: Visual Growth Reduction (%) 14 Days After Application, CYPES.
[7] abbreviates: DIGSA: crabgrass (Digitaria sanguinalis), read-out: Visual Growth Reduction (%) 14 Days After Application, DIGSA.
[8] abbreviates: ECHCG: barnyardgrass (Echinochloa crus-galli), read-out: Visual Growth Reduction (%) 14 Days After Application, ECHCG.
[9] abbreviates: IPOHE: ivy-leaf morning glory (Ipomoea hederacea), read-out: Visual Growth Reduction (%) 14 Days After Application, IPOHE.
The mark [10] stands for this setting: KCHSC: kochia (Bassia scoparia), read-out: Visual Growth Reduction (%) 14 Days After Application, KCHSC.
The mark [11] stands for this setting: ORYSA: rice (Oryza sativa), read-out: Visual Growth Reduction (%) 14 Days After Application, ORYSA.
Setting [12] is: SETFA: giant foxtail (Setaria faberi), read-out: Visual Growth Reduction (%) 14 Days After Application, SETFA.
The mark [13] stands for this setting: SORVU: grain sorghum (Sorghum vulgare), read-out: Visual Growth Reduction (%) 14 Days After Application, SORVU.
Where [14] appears, read: STEME: common chickweed (Stellaria media), read-out: Visual Growth Reduction (%) 14 Days After Application, STEME.
Where [15] appears, read: TRZAS: wheat, spring (Triticum aestivum), read-out: Visual Growth Reduction (%) 14 Days After Application, TRZAS.

For the compound `COC(=O)c1nc(-c2ccc(F)cc2Cl)ccc1Cl` [F37, Methyl 3-chloro-6-(2-chloro-4-fluorophenyl) picolinate], the pest or weed control at 140 g/ha by setting is: under setting [1], 0 to 29%; under setting [2], 85 to 94%; under setting [3], 0 to 29%; under setting [4], 60 to 74%; under setting [5], 0 to 29%; under setting [6], 0 to 29%. The pest or weed control at 140 g/ha reads like this: under setting [7], 0 to 29%; under setting [8], 0 to 29%; under setting [9], 75 to 84%; under setting [10], 0 to 29%; under setting [11], 0 to 29%; under setting [12], 0 to 29%. Besides, the pest or weed control at 140 g/ha reads like this: under setting [13], 75 to 84%; under setting [14], 0 to 29%; under setting [15], 0 to 29%.

As to `COC(=O)c1nc(-c2cc(C(F)(F)F)ccc2Cl)ccc1Cl` [F38, Methyl 3-chloro-6-(2-chloro-5-(trifluoromethyl)phenyl)picolinate], the pest or weed control at 140 g/ha was in the range of 0 to 29% under setting [1]; 0 to 29% under setting [2]; 0 to 29% under setting [3]; 0 to 29% under setting [4]; 0 to 29% under setting [5]; 0 to 29% under setting [6]. The pest or weed control at 140 g/ha under setting [7] fell in the range of 0 to 29%; the pest or weed control at 140 g/ha under setting [8] was in the range of 0 to 29%; the pest or weed control at 140 g/ha under setting [9] lay within 0 to 29%; the pest or weed control at 140 g/ha under setting [10] was 0 to 29%; the pest or weed control at 140 g/ha under setting [11] fell in the range of 0 to 29%; the pest or weed control at 140 g/ha under setting [12] lay in the range of 0 to 29%. The pest or weed control at 140 g/ha under setting [13] fell in the range of 0 to 29%, the pest or weed control at 140 g/ha under setting [14] lay in the range of 0 to 29% and the pest or weed control at 140 g/ha under setting [15] was in the range of 0 to 29%.

For the compound `COC(=O)c1nc(-c2ccc(C(F)(F)F)cc2Cl)cc(OC)c1Cl` [F39, Methyl 3-chloro-6-(trifluoromethyl) phenyl)-4-methoxypicolinate], the pest or weed control at 140 g/ha under setting [1] was in the range of 0 to 29%; the pest or weed control at 140 g/ha under setting [2] lay in the range of 0 to 29%; the pest or weed control at 140 g/ha under setting [3] lay within 0 to 29%; the pest or weed control at 140 g/ha under setting [4] lay in the range of 0 to 29%; the pest or weed control at 140 g/ha under setting [5] lay within 0 to 29%; the pest or weed control at 140 g/ha under setting [6] is 0 to 29%. The pest or weed control at 140 g/ha was 0 to 29% under setting [7]; 0 to 29% under setting [8]; 0 to 29% under setting [9]; 0 to 29% under setting [10]; 0 to 29% under setting [11]; 0 to 29% under setting [12]. Also, the pest or weed control at 140 g/ha fell in the range of 30 to 44% under setting [13], 0 to 29% under setting [14] and 0 to 29% under setting [15].

Turning to `C#Cc1cc(-c2ccc(C(F)(F)F)cc2Cl)nc(C(=O)OC)c1Cl` [F40, methyl 3-chloro-6-(2-chloro-4-(trifluoromethyl)phenyl)-4-ethynylpicolinate], the pest or weed control at 140 g/ha was in the range of 0 to 29% under setting [1]; 0 to 29% under setting [2]; 0 to 29% under setting [3]; 0 to 29% under setting [4]; 0 to 29% under setting [5]; 0 to 29% under setting [6]. Further, the pest or weed control at 140 g/ha is, setting by setting: under setting [7], 0 to 29%; under setting [8], 0 to 29%; under setting [9], 30 to 44%; under setting [10], 0 to 29%; under setting [11], 0 to 29%; under setting [12], 0 to 29%. The pest or weed control at 140 g/ha was in the range of 60 to 74% under setting [13], 0 to 29% under setting [14] and 0 to 29% under setting [15].

For the compound `COC(=O)c1nc(-c2ccc(C(F)(F)F)cc2Cl)cc(Br)c1Cl` [F41, methyl 4-bromo-3-chloro-6-(2-chloro-4-(trifluoromethyl)phenyl)picolinate], the pest or weed control at 140 g/ha fell in the range of 0 to 29% under setting [1]; 0 to 29% under setting [2]; 0 to 29% under setting [3]; 0 to 29% under setting [4]; 0 to 29% under setting [5]; 0 to 29% under setting [6]. For the same compound, the pest or weed control at 140 g/ha under setting [7] lay in the range of 0 to 29%; the pest or weed control at 140 g/ha under setting [8] was 0 to 29%; the pest or weed control at 140 g/ha under setting [9] lay in the range of 0 to 29%; the pest or weed control at 140 g/ha under setting [10] fell in the range of 0 to 29%; the pest or weed control at 140 g/ha under setting [11] was 0 to 29%; the pest or weed control at 140 g/ha under setting [12] was 0 to 29%. Besides, the pest or weed control at 140 g/ha by setting is: under setting [13], 0 to 29%; under setting [14], 0 to 29%; under setting [15], 0 to 29%.

Take `COC(=O)c1nc(-c2ccc(C(F)(F)F)cc2Cl)c(F)c(Cl)c1Cl` [F43, methyl 3,4-dichloro-6-(2-chloro-4-(trifluoromethyl)phenyl)-5-fluoropicolinate]: the pest or weed control at 140 g/ha fell in the range of 0 to 29% under setting [1]; 0 to 29% under setting [2]; 0 to 29% under setting [3]; 0 to 29% under setting [4]; 0 to 29% under setting [5]; 0 to 29% under setting [6]. The pest or weed control at 140 g/ha under setting [7] fell in the range of 0 to 29%; the pest or weed control at 140 g/ha under setting [8] was in the range of 0 to 29%; the pest or weed control at 140 g/ha under setting [9] lay in the range of 0 to 29%; the pest or weed control at 140 g/ha under setting [10] was in the range of 0 to 29%; the pest or weed control at 140 g/ha under setting [11] lay in the range of 0 to 29%; the pest or weed control at 140 g/ha under setting [12] fell in the range of 0 to 29%. Further, the pest or weed control at 140 g/ha under setting [13] fell in the range of 45 to 59%, the pest or weed control at 140 g/ha under setting [14] is 0 to 29% and the pest or weed control at 140 g/ha under setting [15] was in the range of 0 to 29%.

`C#CCOC(=O)c1nc(-c2ccc(C(F)(F)F)cc2Cl)ccc1Cl` [F45, prop-2-yn-1-yl 3-chloro-6-(2-chloro-4-(trifluoromethyl)phenyl)picolinate]: the pest or weed control at 140 g/ha by setting is: under setting [1], 30 to 44%; under setting [2], 95 to 100%; under setting [3], 45 to 59%; under setting [4], 95 to 100%; under setting [5], 95 to 100%; under setting [6], 0 to 29%. For the same compound, the pest or weed control at 140 g/ha is, setting by setting: under setting [7], 95 to 100%; under setting [8], 30 to 44%; under setting [10], 85 to 94%; under setting [11], 60 to 74%; under setting [12], 85 to 94%; under setting [13], 85 to 94%. Further, the pest or weed control at 140 g/ha is, setting by setting: under setting [14], 75 to 84%; under setting [15], 85 to 94%.
